Results taken from ChEMBL document CHEMBL1201862, “PubChem BioAssay data set” (2004).
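96-well plates; 48 h exposure; 5 concentrations. Endpoints by linear interpolation between flanking doses. Not reached: highest tested concentration assigned. Here, GI50 denotes the concentration required for 50% inhibition of growth.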 Activity calls are given as the source filed them. Rule as the data show it: active = GI50 up to about 1.1 µM and inactive = higher.

Experiments:
Experiment in all cases: NCI-60 cell line screen, 48 h
[1] = tested on: 786-0
[2] = tested on: A498
[3] = tested on: A549
[4] = tested on: ACHN
[5] = tested on: BT-549
[6] = tested on: CAKI-1
[7] = tested on: CCRF-CEM
[8] = tested on: COLO 205
[9] = tested on: DU-145
[10] = tested on: EKVX
[11] = tested on: HCC 2998
[12] = tested on: HCT-116
[13] = tested on: HCT-15
[14] = tested on: HOP-62
[15] = tested on: HOP-92
[16] = tested on: HT-29
[17] = tested on: IGROV-1
[18] = tested on: K562
[19] = tested on: KM12
[20] = tested on: LOX IMVI
[21] = tested on: M14
[22] = tested on: MCF7
[23] = tested on: MDA-MB-231
[24] = tested on: MDA-MB-435
[25] = tested on: MDA-N
[26] = tested on: MOLT-4
[27] = tested on: Malme-3M
[28] = tested on: NCI-H226
[29] = tested on: NCI-H23
[30] = tested on: NCI-H522
[31] = tested on: NCI/ADR-RES
[32] = tested on: OVCAR-3
[33] = tested on: OVCAR-4
[34] = tested on: OVCAR-5
[35] = tested on: OVCAR-8
[36] = tested on: PC-3
[37] = tested on: RPMI-8226
[38] = tested on: RXF 393
[39] = tested on: SF-268
[40] = tested on: SF-295
[41] = tested on: SF-539
[42] = tested on: SK-MEL-28
[43] = tested on: SK-MEL-2
[44] = tested on: SK-MEL-5
[45] = tested on: SK-OV-3
[46] = tested on: SN12C
[47] = tested on: SNB-19
[48] = tested on: SR
[49] = tested on: SW-620
[50] = tested on: T47D
[51] = tested on: TK-10
[52] = tested on: U-251
[53] = tested on: UACC-257
[54] = tested on: UACC-62
[55] = tested on: UO-31

Cc1ccc(C2SCC(=O)N2NC(=O)c2ccncc2)s1 (stereo not given)
GI50 [1]: > 100 µM (inactive)
GI50 [2]: > 100 µM (inactive)
GI50 [3]: > 100 µM (inactive)
GI50 [4]: > 100 µM (inactive)
GI50 [5]: > 100 µM (inactive)
GI50 [6]: > 100 µM (inactive)
GI50 [7]: > 100 µM (inactive)
GI50 [8]: > 100 µM (inactive)
GI50 [9]: > 100 µM (inactive)
GI50 [10]: > 100 µM (inactive)
GI50 [11]: > 100 µM (inactive)
GI50 [12]: > 100 µM (inactive)
GI50 [13]: > 100 µM
GI50 [14]: > 100 µM (inactive)
GI50 [15]: > 100 µM (inactive)
GI50 [16]: > 100 µM (inactive)
GI50 [17]: > 100 µM (inactive)
GI50 [18]: > 100 µM (inactive)
GI50 [19]: > 100 µM (inactive)
GI50 [20]: > 100 µM (inactive)
GI50 [21]: > 100 µM (inactive)
GI50 [22]: > 100 µM (inactive)
GI50 [23]: > 100 µM (inactive)
GI50 [24]: > 100 µM (inactive)
GI50 [25]: > 100 µM (inactive)
GI50 [26]: > 100 µM (inactive)
GI50 [27]: > 100 µM (inactive)
GI50 [28]: > 100 µM (inactive)
GI50 [29]: > 100 µM (inactive)
GI50 [30]: > 100 µM (inactive)
GI50 [31]: > 100 µM (inactive)
GI50 [32]: > 100 µM (inactive)
GI50 [33]: > 100 µM (inactive)
GI50 [34]: > 100 µM (inactive)
GI50 [35]: > 100 µM (inactive)
GI50 [36]: > 100 µM (inactive)
GI50 [37]: > 100 µM (inactive)
GI50 [38]: > 100 µM (inactive)
GI50 [39]: > 100 µM (inactive)
GI50 [40]: > 100 µM (inactive)
GI50 [41]: > 100 µM (inactive)
GI50 [42]: > 100 µM (inactive)
GI50 [43]: > 100 µM (inactive)
GI50 [44]: > 100 µM (inactive)
GI50 [45]: > 100 µM (inactive)
GI50 [46]: > 100 µM (inactive)
GI50 [47]: > 100 µM (inactive)
GI50 [48]: > 100 µM (inactive)
GI50 [49]: > 100 µM (inactive)
GI50 [50]: > 100 µM (inactive)
GI50 [51]: > 100 µM (inactive)
GI50 [52]: > 100 µM (inactive)
GI50 [53]: > 100 µM (inactive)
GI50 [54]: > 100 µM (inactive)
GI50 [55]: > 100 µM (inactive)
